US8362000B2, “Azetidinyl diamides as monoacylglycerol lipase inhibitors” (Janssen Pharmaceutica NV, priority 2009, dated 2013)
Residue numbers refer to the chain shown, from its start. Read-outs that look alike come from different tables or passages of the source.

Tests used:
[1] = target: T1, purified wild type MGL (wt-MGLL 6H-11-313) (Homo sapiens, UniProt Q99685)
T1 sequence (Q99685 1-303): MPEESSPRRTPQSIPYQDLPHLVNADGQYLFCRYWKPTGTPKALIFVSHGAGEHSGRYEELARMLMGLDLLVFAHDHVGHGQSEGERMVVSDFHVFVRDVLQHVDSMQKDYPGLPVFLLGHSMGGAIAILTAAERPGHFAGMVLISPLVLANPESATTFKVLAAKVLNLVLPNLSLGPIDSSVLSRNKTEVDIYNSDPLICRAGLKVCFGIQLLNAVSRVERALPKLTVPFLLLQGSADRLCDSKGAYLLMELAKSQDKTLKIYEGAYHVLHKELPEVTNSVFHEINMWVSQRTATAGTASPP

[2] = tested on: CFA-induced paw radiant heat hypersensitivity; assay: CFA-induced paw radiant heat hypersensitivity; type: in vivo, rat; conditions: Rattus norvegicus, po, 30 mg/kg p.o., HPβCD, last time point 180 or 300 min
Experimental: Each rat was placed in a test chamber on a warm glass surface and allowed to acclimate for approximately 10 min. A radiant thermal stimulus (beam of light) was then focused through the glass onto the plantar surface of each hind paw in turn. The thermal stimulus was automatically shut off by a photoelectric relay when the paw was moved or when the cut-off time was reached (20 sec for radiant heat at ˜5 amps). An initial (baseline) response latency to the thermal stimulus was recorded for each animal prior to the injection of complete Freund's adjuvant (CFA). […] Immediately following the post-CFA latency assessment, the indicated test compound or vehicle was administered orally.
The percent reversal (% R) of hypersensitivity was calculated in one of two different ways: 1) using group mean values or 2) using individual animal values. More specifically:
Method 2. For some compounds, the % R of hypersensitivity was calculated separately for each animal according to the following formula: % reversal=[(individual treatment response−individual CFA response)/(individual baseline response−individual CFA response)]×100. Results are given as a mean of the maximum % reversal values calculated for each individual animal.

mutant MGL = target: T2, mutant MGL (Homo sapiens, UniProt Q99685, L169S/L176S); assay: MGL ThermoFluor assay - mutant; type: binding
T2 sequence (Q99685 1-303 L169S/L176S): T1 sequence (Q99685 1-303) with L169S, L176S

MGL = target: T3, MGL (Rattus norvegicus, UniProt Q8R431); assay: 2-AG accumulation assay in rat brain homogenate; type: biochemical; conditions: rat brain homogenate, 2-AG accumulation as percent of vehicle; for 2-AG accumulation, % of vehicle control at 0.1 µM: compound 0.1 μM, read-out: Rat Brain 2AG % VehCntrl (%) @ 0.1 μM; for 2-AG accumulation, % of vehicle control at 1 µM: compound 1 μM, read-out: Rat Brain 2AG % VehCntrl (%) @ 1 μM; for 2-AG accumulation, % of vehicle control at 10 µM: compound 10 μM, read-out: Rat Brain 2AG % VehCntrl (%) @ 10 μM
T3 construct: one g rat brain was homogenized using a Polytron homogenizer; from tissue; host or cells: rat brain homogenate
T3 sequence (Q8R431 1-303): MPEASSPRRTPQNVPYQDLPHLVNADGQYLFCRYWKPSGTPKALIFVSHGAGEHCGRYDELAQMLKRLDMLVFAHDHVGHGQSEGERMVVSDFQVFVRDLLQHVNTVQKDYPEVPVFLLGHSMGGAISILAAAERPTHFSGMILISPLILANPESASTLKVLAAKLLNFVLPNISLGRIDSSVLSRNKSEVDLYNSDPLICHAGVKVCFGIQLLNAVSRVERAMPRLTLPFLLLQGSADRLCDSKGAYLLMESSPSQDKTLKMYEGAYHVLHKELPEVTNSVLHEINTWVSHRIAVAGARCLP

[3] = group mean values, read-out: CFA thermal hypersensitivity Method 1: peak % reversal
[4] = individual animal values, read-out: CFA thermal hypersensitivity Method 2: peak % reversal
[5] = ThermoFluor thermal stability binding assay, read-out: MGL mutant ThermoFluor Kd
[6] = ThermoFluor concentration-response, read-out: MGL mutant ThermoFluor Kd
[7] = ThermoFluor, compound concentration measured by qNMR, read-out: MGL mutant ThermoFluor qKd (μM) (using qNMR conc.)

| SMILES | IC50 [1] [nM] | inhibition in vivo at 30 mg/kg [2, 3] [%] | inhibition in vivo at 30 mg/kg [2, 4] [%] | Kd (mutant MGL; [5]) [µM] | 2-AG accumulation, % of vehicle control at 0.1 µM (MGL) [%] | 2-AG accumulation, % of vehicle control at 1 µM (MGL) [%] | 2-AG accumulation, % of vehicle control at 10 µM (MGL) [%] | Kd (mutant MGL; [6]) [µM] | Kd (mutant MGL; [7]) [µM] | 2-AG accumulation, % of vehicle control at 0.01 µM (MGL; compound 0.01 μM, read-out: Rat Brain 2AG % VehCntrl (%) @ 0.01 μM) [%] |
| --- | --- | --- | --- | --- | --- | --- | --- | --- | --- | --- |
| O=C(c1cscn1)N1CCN(C2CN(C(=O)c3ccc(-c4cccc(C(F)(F)F)c4)cc3Cl)C2)CC1 [Cpd 251, 1-(1-{[3-Chloro-3′-(trifluoromethyl)biphenyl-4-yl]carbonyl}azetidin-3-yl)-4-(1,3-thiazol-4-ylcarbonyl)piperazine] | 17 | 35.1 | 38.5 | 0.0143 | 144 | 586 | 791 |  |  |  |
| O=C(c1cscn1)N1CCN(C2CN(C(=O)c3ccc(-c4ccccc4)cc3Cl)C2)CC1 [Cpd 1221] | 258 | 44.7 | 46.7 |  | 198 | 198 | 522 | 0.081 |  |  |
| O=C(c1nccs1)N1CCN(C2CN(C(=O)c3sc4cc(C(F)(F)F)c(F)cc4c3Cl)C2)CC1 [Cpd 900] | < 5 | 8.5 |  | 0.001 |  | 543 |  |  | 0.001 |  |
| O=C(c1ccccc1)N1CCN(C2CN(C(=O)c3ccc4c(-c5cccc(C(F)(F)F)c5)c[nH]c4c3)C2)CC1 [Cpd 572] | 31 | -5.1 |  |  |  | 397 |  | 0.03 |  |  |
| O=C(c1cscn1)N1CCN(C2CN(C(=O)c3ccc(-c4ccc(Cl)c(C(F)(F)F)c4)cc3Cl)C2)CC1 [Cpd 266, 1-(1-{[3,4′-Dichloro-3′-(trifluoromethyl)biphenyl-4-yl]carbonyl}azetidin-3-yl)-4-(1,3-thiazol-4-ylcarbonyl)piperazine] | 49.8 | 50.5 | 56.1 | 0.016 |  | 395 |  |  |  |  |
| O=C(c1cscn1)N1CCN(C2CN(C(=O)c3sc4cc(C(F)(F)F)ccc4c3F)C2)CC1 [Cpd 653] | 7 | -10.7 |  |  |  | 861 |  | 0.011 |  |  |
| O=C(c1cscn1)N1CCN(C2CN(C(=O)c3sc4c(F)c(C(F)(F)F)ccc4c3Cl)C2)CC1 [Cpd 670] | 15 | 20.9 |  | 0.001 |  | 650 |  |  | 0.001 |  |
| O=C(c1ccc(-c2cccc(C(F)(F)F)c2)c(Cl)c1)N1CC(N2CCN(C(=O)c3cscn3)CC2)C1 [Cpd 1102, 1-(1-{[2-Chloro-3′-(trifluoromethyl)biphenyl-4-yl]carbonyl}azetidin-3-yl)-4-(1,3-thiazol-4-ylcarbonyl)piperazine] | 13 | 38 | 45.3 | 0.006 |  | 878 |  |  |  |  |
| O=C(c1ccc2nc(-c3ccccc3)sc2c1)N1CC(N2CCN(C(=O)c3cscn3)CC2)C1 [Cpd 1187, 2-Phenyl-6-({3-[4-(1,3-thiazol-4-ylcarbonyl)piperazin-1-yl]azetidin-1-yl}carbonyl)-1,3-benzothiazole] | 92 | 16.3 |  |  |  | 319 |  | 0.197 |  |  |
| O=C(c1ccccc1)N1CCN(C2CN(C(=O)c3sc4cc(C(F)(F)F)ccc4c3F)C2)CC1 [Cpd 509] | 136 | 17.8 |  |  |  | 242 |  | 0.033 |  |  |
| Cc1nc(-c2ccc(Cl)cc2)sc1C(=O)N1CC(N2CCN(C(=O)c3nccs3)CC2)C1 [Cpd 489, 1-(1-{[2-(4-Chlorophenyl)-4-methyl-1,3-thiazol-5-yl]carbonyl}azetidin-3-yl)-4-(1,3-thiazol-2-ylcarbonyl)piperazine] | 9 | 27.1 | 43.5 |  | 235 | 790 | 950 | 0.0104 |  | 119 |
